Reference: ChEMBL document CHEMBL1201862, “PubChem BioAssay data set” (2004)
Active and inactive are the calls of the source. Cut-off read from the data, not from the text of the source, for most assays here: actives have a measured EC50 and inactives only a lower limit.

Tests used:
[1] = NIH-3T3 fibroblast cytotoxicity, dose response, cytotoxicity control, cell-based, fluorescence, Alamar Blue, secondary assay (AID 2327); assay type: functional;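 note: NIH-3T3 mouse fibroblasts cultured with fluconazole at 8 µg/mL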
[2] = C. albicans growth with fluconazole, confirmation, fluorescence, retest (AID 2467); assay type: functional, cell-based
[3] = target: T1, Replicative DNA helicase DnaB (Mycobacterium tuberculosis, UniProt P9WMR3); assay: DnaB intein splicing inhibitors, dose response, biochemical, cell-free fluorescence (AID 449749); assay type: functional
T1 sequence (P9WMR3 whole entry): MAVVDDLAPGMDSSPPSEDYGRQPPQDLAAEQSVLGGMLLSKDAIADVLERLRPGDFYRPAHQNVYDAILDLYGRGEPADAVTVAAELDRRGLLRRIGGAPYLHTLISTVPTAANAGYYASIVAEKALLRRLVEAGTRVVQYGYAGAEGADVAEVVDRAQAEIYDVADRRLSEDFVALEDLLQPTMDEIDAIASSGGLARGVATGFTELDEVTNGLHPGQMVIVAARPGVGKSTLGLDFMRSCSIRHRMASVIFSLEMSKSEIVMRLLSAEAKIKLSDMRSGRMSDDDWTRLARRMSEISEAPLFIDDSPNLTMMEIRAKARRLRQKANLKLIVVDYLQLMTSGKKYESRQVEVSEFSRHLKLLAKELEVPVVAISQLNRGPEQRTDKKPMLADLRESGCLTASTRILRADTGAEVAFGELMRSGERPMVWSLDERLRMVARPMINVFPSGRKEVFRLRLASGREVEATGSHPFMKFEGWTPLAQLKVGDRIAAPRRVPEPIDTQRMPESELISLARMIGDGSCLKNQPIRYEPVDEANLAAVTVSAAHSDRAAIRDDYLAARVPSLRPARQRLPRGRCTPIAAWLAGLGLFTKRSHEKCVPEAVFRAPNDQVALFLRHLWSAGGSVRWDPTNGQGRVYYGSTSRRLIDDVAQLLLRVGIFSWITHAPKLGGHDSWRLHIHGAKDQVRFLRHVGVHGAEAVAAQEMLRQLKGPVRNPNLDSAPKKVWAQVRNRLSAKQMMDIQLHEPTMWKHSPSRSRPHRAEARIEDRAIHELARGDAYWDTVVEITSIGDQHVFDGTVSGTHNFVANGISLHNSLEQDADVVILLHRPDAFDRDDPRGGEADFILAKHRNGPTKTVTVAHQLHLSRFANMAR

[4] = target: T2, Apoptotic protease-activating factor 1 (Homo sapiens, UniProt O14727); assay type: functional
T2 sequence (O14727 whole entry): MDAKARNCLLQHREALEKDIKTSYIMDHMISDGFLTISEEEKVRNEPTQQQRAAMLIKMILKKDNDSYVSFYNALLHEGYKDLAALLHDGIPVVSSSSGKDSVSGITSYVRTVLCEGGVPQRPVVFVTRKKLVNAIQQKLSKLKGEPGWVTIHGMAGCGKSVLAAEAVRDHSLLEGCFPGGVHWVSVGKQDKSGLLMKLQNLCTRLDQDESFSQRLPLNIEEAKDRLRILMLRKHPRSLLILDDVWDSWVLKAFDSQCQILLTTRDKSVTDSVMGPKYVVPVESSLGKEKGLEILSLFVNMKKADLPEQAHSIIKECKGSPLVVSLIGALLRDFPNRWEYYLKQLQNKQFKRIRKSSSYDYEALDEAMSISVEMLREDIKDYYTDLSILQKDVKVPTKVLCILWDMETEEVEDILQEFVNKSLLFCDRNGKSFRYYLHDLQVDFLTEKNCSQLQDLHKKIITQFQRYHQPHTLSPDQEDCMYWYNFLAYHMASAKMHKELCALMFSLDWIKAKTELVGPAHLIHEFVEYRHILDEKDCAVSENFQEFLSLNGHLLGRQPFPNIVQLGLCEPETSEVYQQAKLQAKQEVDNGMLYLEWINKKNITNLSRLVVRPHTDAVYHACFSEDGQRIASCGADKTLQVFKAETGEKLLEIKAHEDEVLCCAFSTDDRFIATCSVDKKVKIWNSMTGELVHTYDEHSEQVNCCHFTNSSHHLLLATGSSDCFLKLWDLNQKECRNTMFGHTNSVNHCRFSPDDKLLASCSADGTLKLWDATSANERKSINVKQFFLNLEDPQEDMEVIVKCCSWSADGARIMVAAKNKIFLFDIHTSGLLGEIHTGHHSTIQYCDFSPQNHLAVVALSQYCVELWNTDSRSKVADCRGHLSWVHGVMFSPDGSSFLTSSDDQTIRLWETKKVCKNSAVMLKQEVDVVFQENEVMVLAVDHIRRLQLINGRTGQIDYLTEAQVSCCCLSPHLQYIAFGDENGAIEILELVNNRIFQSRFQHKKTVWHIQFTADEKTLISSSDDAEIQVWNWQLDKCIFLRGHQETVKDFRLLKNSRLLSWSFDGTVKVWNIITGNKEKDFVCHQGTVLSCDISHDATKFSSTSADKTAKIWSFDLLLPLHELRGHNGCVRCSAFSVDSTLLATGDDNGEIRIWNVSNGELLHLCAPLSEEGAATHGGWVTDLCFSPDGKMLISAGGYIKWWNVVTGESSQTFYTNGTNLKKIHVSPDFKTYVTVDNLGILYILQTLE

Protein RecA = target: T3, Protein RecA (Mycobacterium tuberculosis, UniProt P9WHJ3); assay: Fluorescence Cell-Free Homogeneous Dose Retest to Identify Inhibitors of RecA-Intein Splicing Activity. [Related pubchem assays (depositor defined):AID2097, AID2223, AID489010, AID492950]; assay type: functional
T3 sequence (P9WHJ3 whole entry): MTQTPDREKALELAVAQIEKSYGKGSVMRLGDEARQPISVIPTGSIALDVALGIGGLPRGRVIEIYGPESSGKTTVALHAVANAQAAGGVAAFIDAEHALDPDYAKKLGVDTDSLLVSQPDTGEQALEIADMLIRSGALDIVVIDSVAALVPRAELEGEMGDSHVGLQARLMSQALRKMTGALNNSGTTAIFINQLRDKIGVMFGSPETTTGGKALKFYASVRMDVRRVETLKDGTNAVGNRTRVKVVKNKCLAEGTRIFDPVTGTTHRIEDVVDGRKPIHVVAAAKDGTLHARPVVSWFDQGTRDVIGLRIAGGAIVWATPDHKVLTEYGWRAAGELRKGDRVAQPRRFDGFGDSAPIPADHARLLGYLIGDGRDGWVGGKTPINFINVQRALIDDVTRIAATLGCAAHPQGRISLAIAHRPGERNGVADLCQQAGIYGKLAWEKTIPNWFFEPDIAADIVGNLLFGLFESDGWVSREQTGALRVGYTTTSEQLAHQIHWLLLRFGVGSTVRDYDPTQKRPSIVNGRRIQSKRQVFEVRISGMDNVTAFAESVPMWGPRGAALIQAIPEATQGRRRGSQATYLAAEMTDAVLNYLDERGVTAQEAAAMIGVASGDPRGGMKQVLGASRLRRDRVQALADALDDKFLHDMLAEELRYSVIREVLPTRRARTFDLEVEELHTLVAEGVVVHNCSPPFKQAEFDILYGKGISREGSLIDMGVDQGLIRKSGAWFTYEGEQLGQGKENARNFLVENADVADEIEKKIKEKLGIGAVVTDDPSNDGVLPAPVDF

O=C(/C=C/c1cccs1)NC(=S)NNC(=O)c1ccccc1O
EC50 [1]: 35.5 µM (active) | EC50 [2]: > 38 µM (not active)

CCCCC(=O)NC(c1ccccc1)c1ccc2cccnc2c1O (stereo not given)
EC50 [1]: 19.9 µM (inconclusive) | EC50 [2]: 0.569 µM (active)

COc1ccc(-n2c3nc4ccccc4nc3c3c(=N)oc(C)nc32)cc1
AC50 [3]: > 120 µM (inactive) | IC50 [4]: 19.1 µM (active) | EC50 (Protein RecA): > 380 µM (inactive)

O=C(N/N=C1\C/C(=N\NC(=O)c2ccncc2)c2ccccc21)c1ccncc1
AC50 [3]: 6.09 µM (active) | IC50 [4]: 12.8 µM (active) | EC50 (Protein RecA): 0.732 µM (active)

CC(=O)N(Cc1ccc(F)cc1)C1=C(NCCc2ccccc2)C(=O)c2ccccc2C1=O
EC50 [1]: 9.84 µM (inconclusive) | EC50 [2]: 0.785 µM (active) | AC50 [3]: 4.93 µM (active) | IC50 [4]: 7.39 µM (active) | EC50 (Protein RecA): 1.42 µM (active)
